Reference: article PMC5700983 (Nature Communications, 2017)
Read-outs that look alike come from different tables or passages of the source.

Assays:
Te_PtxB [1] = biological target: T1, Te_PtxB (Trichodesmium erythraeum, UniProt Q119I9); assay: biochemical
Te_PtxB Y208A = Te_PtxB Y208A (Trichodesmium erythraeum, UniProt Q119I9, Y234A); assay: biochemical
[2] = system: E. coli strain devoid of its native phosphate acquisition systems; conditions: cited from earlier work
Pm_PhnD = Pm_PhnD (Prochlorococcus marinus, UniProt A3PC74); assay: biochemical; format: binding, Prochlorococcus marinus MIT9301
Te_PtxB [3] = biological target: T1, Te_PtxB; assay: biochemical; format: binding, Trichodesmium erythraeum IMS101
Pm_PtxB = conditions: cited from earlier work
Ps_PtxB = Ps_PtxB (Stutzerimonas stutzeri, UniProt O69052); assay: biochemical; format: binding, Pseudomonas stutzeri WM88
Te_PtxB Y208F [4] = biological target: T2, Te_PtxB Y208F (Trichodesmium erythraeum, UniProt Q119I9, Y234F); assay: biochemical
HtxB [5] = biological target: T3, HtxB (Stutzerimonas stutzeri, UniProt O69061); assay: biochemical
[6] = biological target: Te_PtxB, Pm_PhnD and Ps_PtxB; format: binding
[7] = system: E. coli strain devoid of its native phosphate acquisition systems; conditions: cited from earlier work; remark: listed apart in the source
Te_PtxB Y208F [8] = biological target: T2, Te_PtxB Y208F
HtxB [9] = biological target: T3, HtxB; conditions: pH 7.4
Ec_PhnD = conditions: cited from earlier work

Ps_PtxB, sequence (O69052 24-287): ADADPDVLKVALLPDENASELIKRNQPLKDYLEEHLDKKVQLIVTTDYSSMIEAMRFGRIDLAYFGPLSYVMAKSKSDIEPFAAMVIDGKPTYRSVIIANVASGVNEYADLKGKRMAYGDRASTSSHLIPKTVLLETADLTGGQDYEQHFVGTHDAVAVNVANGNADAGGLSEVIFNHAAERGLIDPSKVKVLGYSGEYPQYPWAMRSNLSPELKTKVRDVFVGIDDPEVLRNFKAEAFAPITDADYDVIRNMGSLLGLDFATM
Pm_PhnD, sequence (A3PC74 25-297): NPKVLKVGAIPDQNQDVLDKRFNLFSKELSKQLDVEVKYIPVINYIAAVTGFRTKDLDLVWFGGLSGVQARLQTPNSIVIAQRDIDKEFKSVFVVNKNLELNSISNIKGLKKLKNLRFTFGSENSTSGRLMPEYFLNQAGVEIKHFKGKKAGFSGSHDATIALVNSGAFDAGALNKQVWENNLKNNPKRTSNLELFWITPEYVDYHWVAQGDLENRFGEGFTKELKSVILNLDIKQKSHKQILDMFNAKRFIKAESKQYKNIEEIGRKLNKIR
T1 sequence (Q119I9 28-298 limits assumed): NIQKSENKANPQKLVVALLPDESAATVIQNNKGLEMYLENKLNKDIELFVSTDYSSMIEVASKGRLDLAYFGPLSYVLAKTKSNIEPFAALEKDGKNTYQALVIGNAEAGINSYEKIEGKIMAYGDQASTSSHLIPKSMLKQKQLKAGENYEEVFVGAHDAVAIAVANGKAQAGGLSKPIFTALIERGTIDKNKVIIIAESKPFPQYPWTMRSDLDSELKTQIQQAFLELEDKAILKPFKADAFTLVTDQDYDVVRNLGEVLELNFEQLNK
T2 sequence (Q119I9 28-298 Y234F limits assumed): as the sequence (Q119I9 28-298 limits assumed) above, with Y207F counted along it
Te_PtxB Y208A, sequence (Q119I9 28-298 Y234A limits assumed): as the sequence (Q119I9 28-298 limits assumed) above, with Y207A counted along it
T3 sequence (O69061 34-298): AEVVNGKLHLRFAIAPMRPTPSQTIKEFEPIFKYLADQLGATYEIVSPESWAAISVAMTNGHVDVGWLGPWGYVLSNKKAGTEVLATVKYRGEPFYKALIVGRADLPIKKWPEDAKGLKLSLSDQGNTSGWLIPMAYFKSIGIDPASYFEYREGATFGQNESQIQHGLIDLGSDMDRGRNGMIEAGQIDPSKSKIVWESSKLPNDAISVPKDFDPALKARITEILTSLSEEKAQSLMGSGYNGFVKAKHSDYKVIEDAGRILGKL

O=[PH](O)O [Phosphite, phosphite]
Kd (Te_PtxB [1]): 0.289 ± 0.064 µM
Kd (Te_PtxB Y208A; K d, Te_PtxB Y208A): 134 ± 6.4 µM
Kd (Te_PtxB Y208A; Kd, Te_PtxB Y208A (as quoted in peer review file)): 135 µM
growth of E. coli strain with PtxD and Ralstonia sp. 4506 PtxABC [2]: grew
Kd (Pm_PhnD): 0.051 ± 0.004 µM
higher binding affinity for phosphite than phosphate and phosphonates, Pm_PhnD (Pm_PhnD): 2–4 orders of magnitude
higher binding affinity for phosphite than phosphate and phosphonates, Te_PtxB (Te_PtxB [3]): 2–4 orders of magnitude
Kd (Te_PtxB [3]; K d, Te_PtxB): 0.17 ± 0.07 µM
Kd (Te_PtxB [3]; Kd, PtxB (approximate, authors' response)): ~0.17 µM
Kd (Te_PtxB [3]; Kd, Te_PtxB WT (as quoted in peer review file)): 0.17 µM
binding affinity for Pm_PtxB, in words (Pm_PtxB): low micromolar
Kd (Ps_PtxB): 0.24 ± 0.03 µM
Kd (Te_PtxB Y208F [4]; K d, Te_PtxB Y208F): 295 ± 4.64 µM
Kd (Te_PtxB Y208F [4]; Kd, Te_PtxB Y208F (as quoted in peer review file)): 295 µM
Kd (HtxB [5]): > 10000 µM
Kd ([6]; read-out: K d range over Te_PtxB, Pm_PhnD and Ps_PtxB): 0.05 to 0.24 µM
growth of E. coli strain with HtxBCDE [7]: did allow growth

O=P(O)(O)O [Phosphate]
Kd (Te_PtxB Y208A): 51.3 ± 1.76 µM
growth of E. coli strain with PtxD and Ralstonia sp. 4506 PtxABC [2]: grew
binding to Te_PtxB Y208F, result in words (Te_PtxB Y208F [8]): essentially abolished
Kd (Ps_PtxB): 159 ± 36 µM
Kd (Te_PtxB Y208F [4]): > 60000 µM
K d, HtxB (HtxB [9]): NBD
growth of E. coli strain with HtxBCDE [7]: did not allow growth

NCCP(=O)(O)O [2-Aminoethylphosphonate, 2-aminoethylphosphonate]
K d, Pm_PhnD (Pm_PhnD; pH 7.4): NBD
K d, Te_PtxB (Te_PtxB [3]; pH 7.4): NBD
binding affinity for Ec_PhnD, in words (Ec_PhnD): low nanomolar
K d, Ps_PtxB (Ps_PtxB; pH 7.4): NBD
binding, result in words [6]: None of the proteins showed any evidence of binding
